Values quoted from earlier work as cited in patent US20250361307A1, “COMBINATION THERAPIES FOR TREATING HYPERPROLIFERATIVE DISORDERS” (X4 Pharmaceuticals, Inc., priority 2022, published 2025).

Legend:
[1] = tested on: platelets; conditions: cited from earlier work
[2] = target: BCL-2 (Homo sapiens, UniProt P10415); conditions: cited from earlier work
[3] = target: T1, BCL-w (Homo sapiens, UniProt Q92843); conditions: cited from earlier work
T1 sequence (Q92843 1-193): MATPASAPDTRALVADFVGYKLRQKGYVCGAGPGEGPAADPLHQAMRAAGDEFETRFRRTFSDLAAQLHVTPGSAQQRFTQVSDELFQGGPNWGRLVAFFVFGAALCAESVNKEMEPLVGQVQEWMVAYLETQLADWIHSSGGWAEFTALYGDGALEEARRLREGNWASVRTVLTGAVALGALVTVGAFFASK

[4] = target: MCL-1 (Homo sapiens, UniProt Q07820); conditions: cited from earlier work
[5] = target: T2, A1 (Homo sapiens, UniProt Q16548); conditions: cited from earlier work
T2 sequence (Q16548 1-175): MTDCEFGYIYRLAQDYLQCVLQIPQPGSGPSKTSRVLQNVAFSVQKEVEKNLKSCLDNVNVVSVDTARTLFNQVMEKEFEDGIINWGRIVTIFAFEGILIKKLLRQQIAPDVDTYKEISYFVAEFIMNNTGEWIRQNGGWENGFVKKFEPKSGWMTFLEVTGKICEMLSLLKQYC

[6] = target: BCL-XL (Homo sapiens, UniProt Q07817); conditions: cited from earlier work
[7] = tested on: small-cell lung cancer and hematologic cell lines; conditions: in vivo; cited from earlier work

MCL-1, sequence (Q07820 whole entry): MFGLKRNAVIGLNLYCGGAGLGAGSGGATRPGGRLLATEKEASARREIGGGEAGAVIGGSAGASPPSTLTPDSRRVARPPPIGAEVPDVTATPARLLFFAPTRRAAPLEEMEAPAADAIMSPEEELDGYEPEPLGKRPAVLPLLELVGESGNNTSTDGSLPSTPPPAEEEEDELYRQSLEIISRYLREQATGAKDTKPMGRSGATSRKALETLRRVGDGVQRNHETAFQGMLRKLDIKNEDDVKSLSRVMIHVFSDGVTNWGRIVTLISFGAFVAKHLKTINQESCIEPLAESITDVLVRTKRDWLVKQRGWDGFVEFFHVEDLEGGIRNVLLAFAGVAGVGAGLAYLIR
BCL-2, sequence (P10415 whole entry): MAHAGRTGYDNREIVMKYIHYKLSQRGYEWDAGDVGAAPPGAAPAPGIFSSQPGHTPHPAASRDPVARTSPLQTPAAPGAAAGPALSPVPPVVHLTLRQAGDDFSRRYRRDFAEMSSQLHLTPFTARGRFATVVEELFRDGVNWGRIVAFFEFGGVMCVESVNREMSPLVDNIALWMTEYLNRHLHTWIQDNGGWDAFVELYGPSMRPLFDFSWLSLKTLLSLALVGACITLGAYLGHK
BCL-XL, sequence (Q07817 whole entry): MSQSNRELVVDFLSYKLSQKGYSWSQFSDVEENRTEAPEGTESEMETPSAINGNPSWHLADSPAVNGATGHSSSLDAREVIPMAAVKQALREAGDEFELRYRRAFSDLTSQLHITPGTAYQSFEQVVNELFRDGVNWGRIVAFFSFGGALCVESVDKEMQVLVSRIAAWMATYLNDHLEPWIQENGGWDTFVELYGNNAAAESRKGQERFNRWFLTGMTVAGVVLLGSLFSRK

SMILES | platelet numbers [1] | interaction with BCL-2 [2] | interaction with BCL-w [3] | activity against MCL-1 [4] | activity against A1 [5] | interaction with BCL-XL [6] | tumor responses [7]
CC1(C)CCC(CN2CCN(c3ccc(C(=O)NS(=O)(=O)c4ccc(NCC5CCOCC5)c([N+](=O)[O-])c4)c(Oc4cnc5[nH]ccc5c4)c3)CC2)=C(c2ccc(Cl)cc2)C1 [venetoclax] | little effect | – | – | – | – | – | –
CC1(C)CCC(c2ccc(Cl)cc2)=C(CN2CCN(c3ccc(C(=O)NS(=O)(=O)c4ccc(N[C@H](CCN5CCOCC5)CSc5ccccc5)c(S(=O)(=O)C(F)(F)F)c4)cc3)CC2)C1 [navitoclax] | – | high affinity | high affinity | no activity | no activity | high affinity | rapid and complete tumor responses
